This note sets out measurements from patent US20250186467A1, “METHODS OF TREATING MEDICAL CONDITIONS USING STAMPIDINE OR A RELATED COMPOUND” (ROME Therapeutics, Inc., priority 2022, published 2025).

The structures appear in SMILES notation.

The test system of data set [1] is interferon-stimulated gene (ISG) response. The experiment in a line: In vivo decitabine challenge model. Also on record: species or system C57BL/6 mice. Particulars: stampidine 3, 15, 75 mg/kg i.p. daily with decitabine 5 mg/kg i.p., Day 0 to Day 4; spleen, liver, terminal colon. The procedure: Twenty 9-11 week old C57BL/6 mice were acclimated to the lab for at least 5 days. Stampidine was prepared in a 20% HP-b-CD in water solution for i.p. administration. Decitabine (Sigma) was dissolved in sterile PBS (pH 7.4) and dosed within 30 minutes of preparation of the solution. Doses of both stampidine and decitabine were administered i.p. once a day, every day from Day 0 to Day 4.
On Day 0, mice were split into four groups of five mice and given their first dose of decitabine (i.p., 5 mg/kg) and stampidine. Dosing groups were:
Decitabine and stampidine were administered daily from Day 0 to Day 4. All mice were euthanized 1 hour after the last dose administration on Day 4. Spleens, liver, and terminal colon were collected, along with plasma from each animal. The fold changes in interferon-stimulated gene (ISG) expression were calculated by first normalizing to GAPDH gene using the Delta CT method. The CT (gene of interest)−CT (reference gene) was calculated to generate a delta CT for all samples. The fold change was then calculated by taking the […](Delta CT(control)−Delta CT (experimental). The control in this example was the PBS control animal group. The Taqman duplex assay was used to determine levels of GAPDH v. IFIT2.

A further data set has as its system THP1-Dual KO-TREX1 cells. Put plainly: CellTiter-Glo cell viability in THP1 TREX1 KO cells. It counts as cell-based. As to conditions: highest dose, with 1 μM 5-aza-2′-deoxycytidine, five days. The procedure: THP1 Dual TREX1 KO cells were purchased from Invivogen. The THP1-Dual™ KO-TREX1 cells were cultured in RPMI 1640, 10% heat-inactivated fetal bovine serum, 25 mM HEPES, 10 μg/mL Blasticidin, and 100 μg/mL Zeocin. THP1-Dual™ KO-TREX1 cells were treated with a dose titration of test compound in the presence of 1 μM 5-aza-2′-deoxycytidine (Sigma, cat #189825). Type 1 Interferon and cell viability were assessed after five days of treatment.
Stock solution of test compound was prepared in DMSO followed by a three-fold dilution in DMSO. Additional 50× dilution was prepared in cell culture media for each dilution. 10 μL of diluted test compound was then added to a 384-well plate.
THP1-Dual™ KO-TREX1 cells were treated with 1 μM 5-aza-2′-deoxycytidine. THP1-Dual™ KO-TREX1 cells (50 μL) were added to each well of the 384-well plate containing test compound titration at 10,000 cells/well. Cells were incubated at 37° C., 5% CO2 in a humidified incubator for five days. […] Luminescence was detected on a plate reader according to manufacturer's instructions. […]
The remaining cells were assessed for cell viability by adding 30 μl of CellTiter-Glo (Promega, 09683) solution to each well, and placed on a shaker for 10 minutes at room temperature. Luminescence was detected on a plate reader, according to manufacturer's instructions. […]
(ATP-based viability assays read luminescence as a measure of living cells.)

For data set [2], the system named is phosphorylated TANK-binding kinase 1 (pTBK1). Put plainly: UVB-induced pTBK1 in HaCaT cells. The data set is classed as cell-based. Particulars: 96 hours of treatment before UVB, 24 hours post-UVB, ELISA. The procedure:
HaCaT cells were plated in 6-well plates at a density of ˜100 k/well in HaCaT media (DMEM, optimized 1× (Addex Bio)+1% pen strep (Gibco)+5% heat inactivated fetal bovine serum (Gibco)). The cells were then cultured at 37° C. overnight. The next day, the cells were treated with the test compounds. Each test compound was diluted and added to media aliquots to provide desired concentrations. To add the test compound+media mixture, an equivalent amount of media from each well was aspirated and then replenished with the media dosed with the test compound. The cells were then cultured for an additional 96 hours with compound treatment prior to UVB exposure.
The media was then aspirated from the wells, with the remaining cells at least 80% confluent in each well. One mL of PBS was then added to each well, and the plate was then placed under a UVB lamp. A UVB sensor was positioned near the plate to register the plate's exposure. The cells were exposed to the UVB light until they reached 0.1 mJ/cm^2. Then the plate was covered and transferred to a sterile hood for processing. […]
A RIPA lysis buffer (#BP-115, Boston Bio-Products) was added to a Halt protease and […] inhibitor cocktail (#78440, ThermoFisher), and the mixture was cooled on ice. […] The protein concentration of the cell lysate was measured using Pierce™ Rapid Gold BCA Protein Assay Kit #AF3225 (ThermoFisher). […]
Background: ELISA stands for enzyme-linked immunosorbent assay.

`COC(=O)[C@H](C)N[P@](=O)(OC[C@@H]1C=C[C@H](n2cc(C)c(=O)[nH]c2=O)O1)Oc1ccc(Br)cc1` [Stampidine, methyl ((S)-(4-bromophenoxy)(((2S,5R)-5-(5-methyl-2,4-dioxo-3,4-dihydropyrimidin-1(2H)-yl)-2,5-dihydrofuran-2-yl)methoxy)phosphoryl)-L-alaninate]: the “change in ISG response” value in data set [1] is listed as “showed the change in ISG response which was most prominent in the spleen tissue”. Besides, in the data set on THP1-Dual KO-TREX1 cells, the “reduction in cell viability” value was about 15%. Besides, in data set [2], the “reduction of UVB-induced pTBK1” value is on record as “showed a reduction of UVB-induced phosphorylated TANK-binding kinase 1 (pTBK1)”.
